Converted amounts (≈) assume the structure as drawn.
Key:
Mdr1 protein = conditions: cited from earlier work
KB 8-5-11 cells [1] = test: Relative RMA activity: percent KB 8-5-11 (MDR) cells showing rhodamine 123 fluorescence in the range of sensitive KB 3-1 cells; type: cell-based, human; conditions: Table V, none = 0.6
Experimental: Efflux of rhodamine 123 from MDR cells was also examined to provide direct information about the action of the transport protein Mdr 1. Enhanced accumulation of the P-gp substrate, rhodamine 123, in multidrug resistant KB 8-5-11 cells was used to measure RMA activity. Flow cytometric analysis was performed as described (Coon et al., 1991; Buckingham et al. 1995). Briefly, multidrug resistant KB 8-5-11 cells (0.5×10^6 cells/ml) were incubated with […] rhodamine 123 at 37° C. in the presence or absence of the putative RMA. After 60 min., mean intracellular steady state rhodamine 123 fluorescence was measured on an Epics Profile How Cytometer (Coulter, Hialeah, Fla.).
SOLUTOL® HS 15 was fractionated using reverse phase liquid chromatography to determine where the activity resides in the preparation. An approximately 50% solution of SOLUTOL® HS 15 was prepared in 100% acetonitrile (ACN) and water. One ml of the SOLUTOL® HS 15 solution was injected onto a Phenomenex IB-Sil reversed phase column. The column has 5 μm particles, and is 4.6 mm internal diameter by 150 mm. The flow rate was 2.0 ml/min. The mobile phase was as follows: A=5% ACN and B=100% ACN. The gradient was linear with 100% A to 100% B in 15 minutes, then was maintained at 100% B. Fractions were collected at 30 second intervals. The various fractions were assayed for RMA activity as described in Example III. […] 145-149, 1989.
The various fractions obtained from the reverse phase liquid chromatography were analyzed to determine the RMA activity in each fraction. The fractions were then analyzed by infrared spectrophotometry.
^a Percent cells KB85-11 (MDR) showing rhodamine 123 fluorescence in
the range of sensitive cell (KB31) in the same experiment.
CREMOPHOR® EL was fractionated by super critical extraction. Approximately 25 grams of CREMOPHOR® EL was thoroughly mixed with 20 grams of hydromatrix (silicon dioxide) manufactured by Varian--Harbor City, Calif. 40710 and loaded into a stainless steel high pressure extraction cell. The extraction cell was maintained at 40° C. Supercritical carbon dioxide was pumped into the extraction cell at a rate of approximately 3 liters of gaseous carbon dioxide per minute (4 ml of supercritical carbon dioxide per minute). The extractable material was dissolved under the extraction conditions, and separated from the matrix. The supercritical carbon dioxide solution with dissolved component was then depressurized to evaporate the carbon dioxide gas, and to precipitate the solute. […]
^a Percent KB 85-11 (MDR) cells showing rhodamine 123 fluorescence in
The RMA activity of various fatty acids, PEG monoesters and PEG diesters was determined by the method described in Example III. […]

KB 8-5-11 cells [2] = test: cells; type: cell-based; conditions: Homo sapiens, 1 h, Table V, read-out: MFI (T/U), treated cells/untreated cells; for fold induction at 100 µg/mL: KB8-5-11, 100 μg/ml
Description: A series of PEG domains of average MW 600, 900 or 1500 was synthesized.

KB 3-1 cells = test: cells; type: cell-based; conditions: Homo sapiens, KB 3-1, 1 h, Table V, read-out: MFI (T/U), treated cells/untreated cells; for fold induction at 100 µg/mL: KB3-1, 100 μg/ml
Description: ^b Mean Fluorescence Intensity resulting from intracellular rhodamine

in vitro [3] = conditions: human, k562/iii cells
Experimental: The chromogenic substrate, MTT (Sigma), was used to enumerate viable cells. […] For the Resistance Modification Index (RMI, Eliason et al., 1990), cells were prepared in microtiter plates and incubated with the indicated drugs and RMA. RMI was calculated as the IC50 of drug alone/IC50 of drug+RMA. The average RMI was calculated from at least three independent assays.
Growth is related as % relative to untreated cells.

in vitro [4] = conditions: human, kb 8-5 cells
in vitro [5] = conditions: human, kb 3-1 cells
in vitro [6] = conditions: human, kb 8-5-11 cells
[7] = In vivo tolerability of RMA; conditions: dosages achieving equivalent or superior reversal of MDR vs verapamil
[8] = test system: multidrug resistant cells; conditions: cited from earlier work

**Q.** Which results are given for COc1cc2c(c(OC)c1OC)-c1ccc(OC)c(=O)cc1[C@@H](NC(C)=O)CC2 [Colchicine, colchicine]?
**A.** competition for vinblastine binding (Mdr1 protein): does not compete for vinblastine binding; interaction with identified drug-binding site on Mdr1 protein (Mdr1 protein): interact weakly with the identified drug-binding site on the Mdr1 protein

**Q.** Which “Relative RMA Activity” value (KB 8-5-11 cells [1]; 10 μg/ml) does the source give for CC/C=C\C/C=C\C/C=C\CCCCCCCC(=O)O [Linolenic Acid] here?
**A.** The value was 1.3%.

**Q.** And the “Relative RMA Activity” value (KB 8-5-11 cells [1]; 100 μg/ml)?
**A.** The value was 9.2%.

**Q.** And the fold induction at 10 µg/mL (KB 8-5-11 cells [2]; KB8-5-11, 10 μg/ml)?
**A.** Its fold induction at 10 µg/mL is 0.9.

**Q.** And the fold induction at 100 µg/mL (KB 8-5-11 cells [2])?
**A.** Its fold induction at 100 µg/mL is 1.7.

**Q.** What about the fold induction at 10 µg/mL (KB 3-1 cells; KB3-1, 10 μg/ml) of the same molecule?
**A.** The fold induction at 10 µg/mL was 1.2.

**Q.** And the fold induction at 100 µg/mL (KB 3-1 cells)?
**A.** The fold induction at 100 µg/mL was 1.7.

**Q.** What does the source list for CCCCCCCC/C=C\CCCCCCCC(=O)O [Oleic Acid]?
**A.** Relative RMA Activity (KB 8-5-11 cells [1]; 100 μg/ml): 2.7%; fold induction at 100 µg/mL (KB 8-5-11 cells [2]): 1.7; fold induction at 100 µg/mL (KB 3-1 cells): 2.1

**Q.** What does the source list for CCCCCCCCCCCCCCCCCC(=O)O [Stearic Acid]?
**A.** Relative RMA Activity (KB 8-5-11 cells [1]; 100 μg/ml): 2.1%; fold induction at 100 µg/mL (KB 8-5-11 cells [2]): 1.4; fold induction at 100 µg/mL (KB 3-1 cells): 1.9

**Q.** With COc1ccc(CCN(C)CCCC(C#N)(c2ccc(OC)c(OC)c2)C(C)C)cc1OC (stereo not shown) [Verapamil] as the molecule, how does the CC50 at 72 h (in vitro [3]) read?
**A.** Its CC50 at 72 h is 38 µg/mL (≈ 83.6 µM).

**Q.** And the CC50 at 72 h (in vitro [4])?
**A.** Its CC50 at 72 h is 10 µg/mL (≈ 22 µM).

**Q.** What about the CC50 at 72 h (in vitro [5]) of the same molecule?
**A.** The CC50 at 72 h was 40 µg/mL (≈ 88 µM).

**Q.** And the CC50 at 72 h (in vitro [6])?
**A.** Its CC50 at 72 h is 27 µg/mL (≈ 59.4 µM).

**Q.** What about the in vivo tolerability [7] of the same molecule?
**A.** The in vivo tolerability was “marked toxicity”.

**Q.** What about the “effect against VP-16 multidrug resistance (literature)” value [8] of the same molecule?
**A.** The value was “not effective against VP-16 multidrug resistance”.

**Q.** And the “intracellular localization of doxorubicin with added agent (literature)” value ([8]; drug resistant cells)?
**A.** The value was “doxorubicin is localized mainly in the nucleus in drug resistant cells”.

**Q.** Which “RMA activity / reversal of multidrug resistance (literature)” value ([8]; in vitro) does the source give for [N-]=[N+]=[N-] [azide] here?
**A.** Its value is “reverse multidrug resistance in vitro”.
